Experiments:
[1] = system: wild-type cotyledons in Arabidopsis
Experimental: A salt tolerance screen is performed to identify and isolate gene(s) that confer salt (NaCl) tolerance in Arabidopsis.
A primary screen is conducted with T1 plants, using a germination assay. T1 seed is plated evenly in media supplemented with 250 mM NaCl. For negative and positive controls, wild type (Col-O) seed is plated in plates with and without, respectively, the supplemental NaCl. Plates are incubated for two days at 4° C., then transferred to a growth room and incubated an additional 7 to 14 days.
Salt tolerant germination is classified in five stages: 1) imbibation, emergence of radicle; 2) expansion and greening of cotyledons; 3) elongation of the hypocotyl; 4) elongation of the root and formation of root hairs; 5) development of true leaves.

[2] = system: wild type (Col-0) Arabidopsis; assay: Copper tolerance germination assay; format: in vivo
Experimental: A screen for copper tolerance was developed in order to identify and isolate gene(s) whose altered expression confers copper tolerance and allows normal plant growth and development in the presence of an inhibitory level of copper. It has been experimentally determined that the lowest completely inhibitory concentration (LCI) of copper is 160 μM for hypocotyl and cotyledon expansion and the development of true leaves in wild type (Col-0) Arabidopsis.
For the primary screen, pooled T2 lines are plated on media supplemented with 160 μM CuSO4. Controls include wild type (Col-0 cand Shadara) plants germinating on plates with no copper and copper at the Col-0 LCI for germination. Plates are incubated 3 days at 4° C., then transferred to the growth room and incubated an additional 10 days.
Copper sensitivity is evaluated with germination assays, which are performed as described above for salt resistance screens.

Compound	concentration that completely abolishes expansion and green pigmentation of cotyledons [1]	concentration at which negative gravitropism of the hypocotyl is completely inhibited [2] [µM]	concentration at which root elongation is inhibited [2] [µM]	lowest completely inhibitory concentration (LCI) ([2]; hypocotyl and cotyledon expansion and development of true leaves) [µM]
[Cl-].[Na+] [NaCl]	greater than 250 mM			
O=S(=O)([O-])[O-].[Cu+2] [copper, CuSO4]		50	100	160

Source: patent US7879611B2, “System for functional gene discovery in plants” (Agrigenetics Inc, priority 2000, dated 2011)
